Structures can show the parent of a compound that is named as a salt.

For data set [1], the system named is HeLa cells. Nature of the data set: Secondary assay: cell proliferation inhibition WST-1, HeLa. It counts as cell-based. As to conditions: Homo sapiens, 48 h. The method, then: (§1) Compounds with HDAC inhibition activity, as determined using the primary assay, were subsequently evaluated using secondary cell-based assays. The following cell lines were used:
HeLa—Human cervical adenocarcinoma cell line (ATCC ref. No. CCL-2).
(§2) Cells were cultured, exposed to candidate compounds, and incubated for a time, and the number of viable cells was then assessed using the Cell Proliferation Reagent WST-1 from Boehringer Mannheim (Cat. No. 1 644 807), described below.
(§3) Cells were plated in 96-well plates at 3-10×10^3 cells/well in 100 μL of culture medium. The following day, different concentrations of candidate compounds were added and the cells incubated at 37° C. for 48 h. Subsequently, 10 μL/well of WST-1 reagent was added and the cells reincubated for 1 hour. After the incubation time, absorbance was measured.
(§4) WST-1 is a tetrazolium salt which is cleaved to formazan dye by cellular enzymes. An expansion in the number of viable cells results in an increase in the overall activity of mitochondrial dehydrogenases in the sample. This augmentation in the enzyme activity leads to an increase in the amount of formazan dye formed, which directly correlates to the number of metabolically active cells in the culture. The formazan dye produced is quantified by a scanning multiwell spectrophotometer by measuring the absorbance of the dye solution at 450 nm wavelength (reference wavelength 690 nm).
(§5) Percent activity (% activity) in reducing the number of viable cells was calculated for each test compound as: % activity={(S^c−B)/(S°−B)}×100 wherein S^c denotes signal measured in the presence of the compound being tested, S° denotes signal measured in the absence of the compound being tested, and B denotes the background signal measured in blank wells containing medium only. […] IC50 values were calculated using the software package Prism 3.0 (GraphPad Software Inc., San Diego, Calif.), setting top value at 100 and bottom value at 0.
(Formazan colour is commonly taken as a measure of viable cells.)

The subject of data set [2] is HDAC (HeLa cell extract). Briefly: Primary assay: deacetylase activity (HDAC inhibition), HeLa cell extract. As to conditions: HeLa cell extract as HDAC source; read-out: Biochemical Assay Data HDAC Inhibition (IC50) HeLa. On the set-up: species or system human. The text has this:
Briefly, this assay relies on the release of radioactive acetate from a radioactively labelled histone fragment by the action of HDAC enzyme. Test compounds, which inhibit HDAC, reduce the yield of radioactive acetate. Signal (e.g., scintillation counts) measured in the presence and absence of a test compound provide an indication of that compound's ability to inhibit HDAC activity. Decreased activity indicates increased inhibition by the test compound.
The histone fragment was an N-terminal sequence from histone H4, and it was labelled with radioactively labelled acetyl groups using tritiated acetylcoenzyme A (coA) in conjunction with an enzyme which is the histone acetyltransferase domain of the transcriptional coactivator p300. […] The acetylated peptide was then separated from free acetyl coA by size exclusion chromatography on Sephadex G-15 (Sigma G-15-120), using distilled H2O as the mobile phase.
After purification of the radiolabelled histone fragment, it was incubated with a source of HDAC (e.g., an extract of HeLa cells (a rich source of HDAC), recombinantly produced HDAC1 or HDAC2) and any released acetate was extracted into an organic phase and quantitatively determined using scintillation counting. By including a test compound with the source of HDAC, that compound's ability to inhibit the HDAC was determined.
Alternatively, the activity of the compounds as HDAC inhibitors was determined using a commercially available fluorescent assay kit: (Fluor de Lys™, BioMol Research Labs, Inc., Plymouth Meeting, USA).
Extensive comparative studies have shown that Primary Assay (1) and Primary Assay (2), discussed above, yield equivalent results. Primary Assay results reported herein are (a) exclusively from (1); (b) exclusively from (2); or (c) from both (1) and (2).
The HeLa cell extract was made from HeLa cells (ATCC Ref. No. CCL-2) by freeze-thawing three times in 60 mM TrisCl pH 8.0, 450 mM NaCl, 30% glycerol. Two cell volumes of extraction buffer were used, and particulate material was centrifuged out (20800 g, 4° C., 10 min). The supernatant extract having deacetylase activity was aliquoted and frozen for storage.
Percent activity (% activity) for each test compound was calculated as: % activity={(S^c−B)/(S°−B)}×100 wherein S^c denotes signal measured in the presence of enzyme and the compound being tested, S° denotes signal measured in the presence of enzyme but in the absence of the compound being tested, and B denotes the background signal measured in the absence of both enzyme and compound being tested.

The subject of data set [3] is K11 HPV E7 transformed human keratinocyte line. Nature of the data set: Secondary assay: cell proliferation inhibition WST-1, K11. It counts as cell-based. To be noted: K11 cells, 48 h. The method, then: as §1
K11—HPV E7 transformed human keratinocyte line provided by Pidder Jansen-Duerr, Institut für Biomedizinische Alternsforschung, Innsbruck, Austria.
as §3, §4, §5

The subject of data set [4] is JURKAT human T-cell line. Briefly: Secondary assay: cell proliferation inhibition WST-1, Jurkat. It counts as cell-based. As to conditions: Jurkat cells, 48 h. The protocol:
as §1
JURKAT—Human T-cell line (ATCC no. TIB-152).
as §2, §3, §4, §5

As for `O=C(CCc1ccc2ccccc2n1)NO` [PX118828, N-Hydroxy-3-(2-quinolinyl)propanamide], the melting point (usually the temperature, or range, at which the solid turns liquid) lay in the range of 159 to 160 °C. Besides, the concentration for half-maximal inhibition (IC50) (usually the concentration that inhibits the measured activity by half) in data set [1] turned out to be 27200 nM. Besides, in data set [2], the concentration for half-maximal inhibition (IC50) stood at 250 nM.
For `O=C(/C=C/c1ccc2cccnc2c1)NO` [PX119068, (E)-N-Hydroxy-3-(7-quinolinyl)-2-propenamide], the melting point is 203 to 205 °C. In data set [1], this molecule had an IC50 of 6700 nM. Also, the concentration for half-maximal inhibition (IC50) in data set [2] is 111 nM.
In turn, `Cc1nc2ccccc2nc1/C=C/C(=O)NO` [PX118866, (E)-N-Hydroxy-3-(3-methyl-2-quinoxalinyl)-2-propenamide] yielded a melting point of 170 to 172 °C. Also, in data set [1], the IC50 is 33100 nM.
`O=C(/C=C/C=C/c1ccc2ccccc2n1)NO` [PX119135, (2E,4E)-N-Hydroxy-5-(2-quinolinyl)-2,4-pentadienamide] came in with a melting point of 160 to 162 °C. The IC50 in data set [2] came out at 330 nM.
With `O=C(/C=C/c1ccc2ncccc2c1)NO` [PX119039, (E)-N-Hydroxy-3-(6-quinolinyl)-2-propenamide], the figures for the IC50 in data set [1] and in data set [2] were 14100 nM and 265 nM, respectively.
For the molecule `O=C(/C=C/c1ccc2cc(F)ccc2n1)NO` [PX118886, (E)-3-(6-Fluoro-2-quinolinyl)-N-hydroxy-2-propenamide], the IC50 in data set [1] was determined as 2600 nM; in data set [2], 44 nM.
In the case of `O=C(/C=C/c1ccc2ccccc2n1)NO` [PX117449, (E)-N-Hydroxy-3-(2-quinolinyl)-2-propenamide], the melting point lay within 159.5 to 160.5 °C. Moreover, in data set [3] (Homo sapiens, Keratinocyte), it took 12400 nM to reach half-maximal inhibition (IC50). In addition, inhibition in data set [1] was half-maximal at 1800 nM (IC50). Besides, in data set [2], the 50% inhibitory concentration (IC50) turned out to be 35 nM. The half-maximal inhibitory concentration (IC50) in data set [4] (Homo sapiens) amounted to 1000 nM.
In data set [4], oxamflatin yielded an IC50 of 170 nM.
With `O=C(/C=C/c1cnc2ccccc2c1)NO` [PX118987, (E)-N-Hydroxy-3-(3-quinolinyl)-2-propenamide], the melting point lay within 205 to 207 °C. This molecule yielded an IC50 in data set [1] of 3700 nM. The half-maximal inhibitory concentration (IC50) in data set [2] is 197 nM.
In turn, `COc1ccc2nc(/C=C/C(=O)NO)ccc2c1` [PX118887, (E)-N-Hydroxy-3-(6-methoxy-2-quinolinyl)-2-propenamide] had a melting point of 172 to 175 °C. Besides, half-maximal inhibition in data set [1] (IC50) required 1800 nM. The IC50 in data set [2] was found to be 28 nM.
`Cc1ccc2nc(/C=C/C(=O)NO)cc(C)c2c1` [PX118864, (E)-3-(4,6-Dimethyl-2-quinolinyl)-N-hydroxy-2-propenamide] displayed a melting point of 199 to 201 °C. This molecule also gave an IC50 in data set [1] of 1300 nM. Besides, the half-inhibitory concentration (IC50) in data set [2] was 609 nM.
With `O=C(CCc1ccc2cccc(O)c2n1)NO` [PX119095, N-Hydroxy-3-(8-hydroxy-2-quinolinyl)propanamide], the melting point lay within 165 to 167 °C. This molecule yielded an IC50 in data set [1] of 22300 nM.
The molecule `O=C(/C=C/c1cccc2cccnc12)NO` [PX119071, (E)-3-(8-Quinolinyl)-N-hydroxy-2-propenamide] had a melting point of 159 to 160 °C.
Molecule `Cc1ccc2nc(CCC(=O)NO)cc(C)c2c1` [PX119138, 3-(4,6-Dimethyl-2-quinolinyl)-N-hydroxypropanamide] gave a melting point of 192 to 194 °C. The IC50 in data set [2] worked out at 619 nM.
For `O=C(NO)c1ccc(OCc2ccc3ccccc3n2)cc1` [PX119141, N-Hydroxy-4-(2-quinolinylmethoxy)benzamide], the melting point lay within 202 to 204 °C. Also, the 50% inhibitory concentration (IC50) in data set [2] stood at 186 nM.
Molecule `O=C(/C=C/c1nc2ccccc2s1)NO` [PX118915, (E)-3-(1,3-Benzothiazol-2-yl)-N-hydroxy-2-propenamide] registered a melting point of 163 to 165 °C. For the same molecule, 7200 nM corresponded to half-maximal inhibition in data set [1] (IC50). For the same molecule, in data set [2], the IC50 was determined as 30 nM.
In turn, `COc1ccc2nc(C)ccc2c1/C=C/C(=O)NO` [PX119038, (E)-N-Hydroxy-3-(6-methoxy-2-methyl-5-quinolinyl)-2-propenamide] had a melting point of 225 to 227 °C.
Consider `Nc1ccccc1NC(=O)c1ccc(CNC(=O)OCc2cccnc2)cc1` [MS-275], for which the half-inhibitory concentration (IC50) in data set [3] is 9160 nM; in data set [4], 365 nM.
For the molecule `Cc1ccc2nc(/C=C/C(=O)NO)ccc2c1` [PX118839, (E)-3-(6-Methyl-2-quinolinyl)-N-hydroxy-2-propenamide], the melting point was 200 to 202 °C (dec.). Also, the 50% inhibitory concentration (IC50) in data set [1] was found to be 2400 nM. Besides, in data set [2], the IC50 came out at 40 nM.
For `O=C(CCc1nc2ccccc2[nH]c1=O)NO` [PX119094, N-Hydroxy-3-(3-oxo-3,4-dihydro-2-quinoxalinyl)propanamide], the melting point lay in the range of 213 to 214 °C.
`O=C(/C=C/c1ccc2cccc(OCc3ccccc3)c2n1)NO` [PX118867, (E)-3-[8-(Benzyloxy)-2-quinolinyl]-N-hydroxy-2-propenamide] registered a melting point of 180 to 182 °C. Besides, in data set [1], half-maximal inhibition (IC50) required 3900 nM. In addition, in data set [2], the concentration for half-maximal inhibition (IC50) was determined as 262 nM.
The like results for `Cc1ccc2ccc(/C=C/C(=O)NO)nc2c1` [PX118869, (E)-N-Hydroxy-3-(7-methyl-2-quinolinyl)-2-propenamide] were, in that order, 191 to 193 °C, 1500 nM and 38 nM.
Take `O=C(/C=C/c1nc2ccccc2o1)NO` [PX118835, (E)-3-(1,3-Benzoxazol-2-yl)-N-hydroxy-2-propenamide]: the IC50 in data set [1] stood at 1700 nM; in data set [2], 32 nM.
In the case of `CC(/C=C/C(=O)NO)=C\[C@@H](C)C(=O)c1ccc(N(C)C)cc1` [TSA, trichostatin A], the IC50 worked out at 380 nM in data set [3] (Homo sapiens, Keratinocyte); 350 nM in data set [1]; 42 nM in data set [4] (Homo sapiens).
Consider `O=C(/C=C/c1cnc2ccccc2n1)NO` [PX118840, (E)-3-(2-Quinoxalinyl)-N-hydroxy-2-propenamide sodium salt], for which the half-maximal inhibitory concentration (IC50) in data set [1] came out at 2100 nM; in data set [2], 42 nM.
`O=C(/C=C/c1ccnc2ccccc12)NO` [PX118885, (E)-3-(4-Quinolinyl)-N-hydroxy-2-propenamide] returned a melting point of 204 to 206 °C. This molecule also had an IC50 in data set [1] of 2700 nM. For the same molecule, the 50% inhibitory concentration (IC50) in data set [2] stood at 68 nM.
Regarding `O=C(/C=C/c1cccc2ncccc12)NO` [PX119088, (E)-N-Hydroxy-3-(5-quinolinyl)-2-propenamide], the melting point is 211 to 213 °C. The molecule further returned an IC50 in data set [1] of 17800 nM.
The molecule `COc1ccc2nc(/C=C/C(=O)NO)ccc2c1Br` [PX118865, (E)-3-(5-Bromo-6-methoxy-2-quinolinyl)-N-hydroxy-2-propenamide] had a melting point of 204 to 206 °C. In addition, the midpoint of inhibition in data set [1], the IC50, lay at 1400 nM. Moreover, in data set [2], the IC50 stood at 218 nM.
In the case of `O=C(/C=C/c1cnc2ccccc2n1)NO` (as salt: sodium) [PX118840, (E)-3-(2-Quinoxalinyl)-N-hydroxy-2-propenamide sodium salt], the melting point is 200 to 202 °C (dec.).

Values taken from US8071620B2, “Carbamic acid compounds comprising a bicyclic heteroaryl group as HDAC inhibitors” (Topotarget UK Limited, priority 2003, dated 2011).
